Assay results: ChEMBL document CHEMBL3638462, “Pyridine and pyrimidine derivatives as phosphodiesterase 10 inhibitors” (2014)
Several values for one entry are separate records, joined by “and”; a condition that tells them apart may be missing. Equal entries are not always repeated.

Each molecule was assayed against cAMP and cAMP-inhibited cGMP 3',5'-cyclic phosphodiesterase 10A (Homo sapiens, UniProt Q9Y233) (assay: Enzyme Inhibition Assay: To check the inhibition profile, 5 μL of serial diluted compounds were incubated with 5 μL of diluted PDE10 enzyme (BPS Bioscience, San Diego, Calif.) or tissue homogenate in a 384-well polystyrene assay plate (Corning, Corning, N.Y.) for 30 min at room temperature. After incubation, 10 μL of diluted fluorescein labeled cAMP or cGMP substrate were added and incubated for 60 min at room temperature. The reaction was stopped by adding 60 μL of diluted binding reagents and plates were read on an Envision (Perkin Elmer, Waltham, Mass.) for time resolved fluorescence resonance energy transfer. The data were analyzed with GraphPad Prism (La Jolla, Calif.).).
cAMP and cAMP-inhibited cGMP 3',5'-cyclic phosphodiesterase 10A, sequence (Q9Y233 whole entry): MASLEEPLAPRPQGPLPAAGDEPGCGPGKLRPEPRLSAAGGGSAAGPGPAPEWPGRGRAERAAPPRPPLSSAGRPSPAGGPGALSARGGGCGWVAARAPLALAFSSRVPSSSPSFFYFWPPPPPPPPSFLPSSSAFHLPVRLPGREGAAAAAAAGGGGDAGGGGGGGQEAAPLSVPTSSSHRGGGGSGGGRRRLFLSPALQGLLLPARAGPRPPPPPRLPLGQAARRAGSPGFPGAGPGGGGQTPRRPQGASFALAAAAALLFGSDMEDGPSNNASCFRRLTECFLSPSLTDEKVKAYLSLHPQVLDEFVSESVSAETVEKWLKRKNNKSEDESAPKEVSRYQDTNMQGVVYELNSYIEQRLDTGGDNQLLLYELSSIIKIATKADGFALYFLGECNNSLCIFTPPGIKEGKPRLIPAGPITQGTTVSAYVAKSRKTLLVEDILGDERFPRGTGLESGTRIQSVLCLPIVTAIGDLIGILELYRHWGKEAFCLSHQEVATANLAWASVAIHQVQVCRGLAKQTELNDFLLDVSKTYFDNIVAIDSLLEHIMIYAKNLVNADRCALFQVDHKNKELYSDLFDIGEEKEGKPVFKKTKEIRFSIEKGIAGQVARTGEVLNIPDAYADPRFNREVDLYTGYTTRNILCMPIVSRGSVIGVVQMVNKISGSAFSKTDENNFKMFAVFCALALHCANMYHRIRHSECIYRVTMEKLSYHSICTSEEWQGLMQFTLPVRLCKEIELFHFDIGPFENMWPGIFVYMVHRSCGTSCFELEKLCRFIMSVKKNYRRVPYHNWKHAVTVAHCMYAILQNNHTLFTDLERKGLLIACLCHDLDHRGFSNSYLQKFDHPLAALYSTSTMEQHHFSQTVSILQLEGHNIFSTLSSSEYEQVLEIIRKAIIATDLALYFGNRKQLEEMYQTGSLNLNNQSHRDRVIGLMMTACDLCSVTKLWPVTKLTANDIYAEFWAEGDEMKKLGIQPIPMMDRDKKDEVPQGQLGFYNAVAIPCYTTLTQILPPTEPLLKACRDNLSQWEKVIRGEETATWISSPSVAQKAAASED
N#Cc1ccc2[nH]c(Nc3ccc(Oc4ncccc4C(F)(F)F)cc3)nc2c1 showed an IC50 of 112 nM.
CC(=O)N1CCC(c2cccnc2Oc2ccc(C(=O)c3nc4ccccc4[nH]3)cc2)CC1 gave an IC50 of 0.158 nM.
Molecule O=C(c1ccc(Oc2ncccc2-c2ccncc2)cc1)c1nc2ccccc2[nH]1 has an IC50 of 0.256 nM.
Work on CC(=O)N1CCC(c2cccnc2Oc2ccc(Nc3nc4ccccc4s3)cc2)CC1 yielded an IC50 of 0.175 nM.
C[C@]1(O)CCC[C@H](c2cccnc2Oc2ccc(Nc3ccccn3)cc2)C1 gave an IC50 of 24.2 nM.
Molecule O=C(c1ccc(Oc2ncccc2Br)cc1)c1nc2ccccc2[nH]1 has an IC50 of 44.7 nM.
Brc1cccnc1Oc1ccc(Nc2nc3ccccc3s2)cc1 showed an IC50 of 691 nM.
Molecule Cc1cc(-c2cccnc2Oc2ccc(C(=O)c3nc4ccccc4[nH]3)cc2)ccn1 has an IC50 of 0.76 nM.
For Cn1cc(-c2cccnc2Oc2ccc(C(=O)c3nc4ccccc4[nH]3)cc2)cn1, the IC50 was 6.28 nM.
For COc1cc(-c2cccnc2Oc2ccc(C(=O)c3nc4ccccc4[nH]3)cc2)ccn1, the IC50 was 1.61 nM.
O=C(c1ccc(Oc2ncccc2N2CCOCC2)cc1)c1nc2ccccc2[nH]1 showed an IC50 of 1.59 nM.
For N#Cc1cccc(-c2cccnc2Oc2ccc(Nc3nc4ccccc4s3)cc2)c1, the IC50 was 18.3 nM.
For COc1ccc(-c2cccnc2Oc2ccc(Nc3nc4ccccc4s3)cc2)cn1, the IC50 was 23.7 nM.
In the case of c1cnc(Oc2ccc(Nc3nc4ccccc4s3)cc2)c(-c2cncnc2)c1, the IC50 is reported as 0.303 nM.
With O=C(c1ccc(Oc2ncccc2-c2cccnc2)cc1)c1nc2ccccc2s1 the IC50 was 32 nM.
Cc1cc(-c2cccnc2Oc2ccc(Nc3nc4ccccc4s3)cc2)ccn1 was tested, and the IC50 was 5 nM.
FC(F)(F)c1cc(-c2cccnc2Oc2ccc(Cc3nc4ccccc4[nH]3)cc2)ccn1 gave an IC50 of 118 nM.
In the case of FC(F)(F)c1cc(-c2cccnc2Oc2ccc(Nc3nc4ccccc4[nH]3)cc2)ccn1, the IC50 is reported as 36.7 nM.
O=C(c1ccc(Oc2ncccc2-c2cnn(C3CC3)c2)cc1)c1nc2ccccc2[nH]1 showed an IC50 of 23 nM.
With O=C(c1ccc(Oc2ncccc2Br)cc1)c1nc2ccccc2n1C1CCCCO1 (configuration not stated) the IC50 was 1610 nM.
For O=C(c1ccc(Oc2ncccc2N2CCOCC2)cc1)c1nc2ccccc2s1, the IC50 was 98.8 nM.
With c1cnc(Oc2ccc(Nc3nc4ccccc4s3)cc2)c(-c2ccncn2)c1 the IC50 was 22.4 nM.
O=C(c1ccc(Oc2ncccc2C(=O)NCCc2ccccn2)cc1)c1nc2ccccc2[nH]1 showed an IC50 of 1.74 nM.
Molecule c1cnc(Oc2ccc(Nc3nc4ccccc4s3)cc2)c(-c2cccc3ncccc23)c1 has an IC50 of 6.91 nM.
Work on COC[C@H](C)NC(=O)c1cccnc1Oc1ccc(C(=O)c2nc3ccccc3[nH]2)cc1 yielded an IC50 of 12.8 nM.
c1cnc(Oc2ccc(Nc3nc4ccccc4s3)cc2)c(-c2ccc3c(c2)OCCO3)c1 was tested, and the IC50 was 43.9 nM.
For c1cnc(Oc2ccc(Nc3nc4ccccc4s3)cc2)c(-c2ccc3c(c2)CCO3)c1, the IC50 was 42.4 nM.
With O=C(c1ccc(Oc2ncccc2-c2ncnc3nc[nH]c23)cc1)c1nc2ccccc2[nH]1 the IC50 was 32.7 nM.
Molecule O=C(c1ccc(Oc2ncccc2-c2ccncn2)cc1)c1nc2ccccc2[nH]1 has an IC50 of 7.45 nM.
Cc1ccc(-c2cccnc2Oc2ccc(C(=O)c3nc4ccccc4[nH]3)cc2)cn1 gave an IC50 of 0.177 nM.
With O=C(c1ccc(Oc2ncccc2Br)cc1)c1nc2ccc(F)cc2[nH]1 the IC50 was 74.6 nM.
Work on O=C(c1ccc(Oc2ncccc2Br)cc1)c1nc2ccccc2s1 yielded an IC50 of 3940 nM.
For C1=C(c2cccnc2Oc2ccc(Nc3nc4ccccc4s3)cc2)CCCC1, the IC50 was 72 nM.
In the case of C[C@@H](Cc1ccccn1)NC(=O)c1cccnc1Oc1ccc(C(=O)c2nc3ccccc3[nH]2)cc1, the IC50 is reported as 0.971 nM and 0.541 nM.
In the case of O=C(c1ccc(Oc2ncccc2N2CCCCC2)cc1)c1nc2ccccc2[nH]1, the IC50 is reported as 13.3 nM.
O=C(c1ccc(Oc2ncccc2N2CCCC2)cc1)c1nc2ccccc2[nH]1 gave an IC50 of 14 nM.
Work on O=C(c1ccc(Oc2ncccc2C(=O)N[C@@H](CO)Cc2ccccc2)cc1)c1nc2ccccc2[nH]1 yielded an IC50 of 12.8 nM.
For O=C(c1ccc(Oc2ncccc2C(=O)N[C@H](CO)Cc2ccccc2)cc1)c1nc2ccccc2[nH]1, the IC50 was 0.839 nM.
Work on CC(C)(CNC(=O)c1cccnc1Oc1ccc(C(=O)c2nc3ccccc3[nH]2)cc1)c1ccccn1 yielded an IC50 of 1.48 nM.
Work on O=C(c1ccc(Oc2ncccc2-c2ccnc3ccccc23)cc1)c1nc2ccccc2[nH]1 yielded an IC50 of 0.67 nM.
Molecule O=C(c1ccc(Oc2ncccc2C(=O)NC2(Cc3ccccc3)CC2)cc1)c1nc2ccccc2[nH]1 has an IC50 of 0.168 nM.
Molecule c1cnc(Oc2ccc(Nc3nc4ccccc4s3)cc2)c(-c2ccnc3ccccc23)c1 has an IC50 of 7.22 nM.
Work on CC(C)(C)OC(=O)N1CC=C(c2cccnc2Oc2ccc(Nc3nc4ccccc4s3)cc2)CC1 yielded an IC50 of 44.4 nM.
In the case of CN(c1ccc(Oc2ncccc2-c2cccnc2)cc1)c1nc2ccccc2s1, the IC50 is reported as 15.2 nM.
O=C(c1ccc(Oc2ncccc2-c2cccnc2)cc1)c1nc2ncccc2[nH]1 was tested, and the IC50 was 4.81 nM.
For O=C(c1ccc(Oc2ncccc2C(=O)N[C@H](CO)Cc2ccc(O)cc2)cc1)c1nc2ccccc2[nH]1, the IC50 was 3.65 nM.
O=C(c1ccc(Oc2ncccc2C(=O)NCCc2ccccc2)cc1)c1nc2ccccc2[nH]1 gave an IC50 of 2.72 nM.
Work on C1=C(c2cccnc2Oc2ccc(Nc3nc4ccccc4s3)cc2)CCOC1 yielded an IC50 of 2.21 nM.
Molecule Cc1ccc(-c2cccnc2Oc2ccc(Nc3nc4ccccc4s3)cc2)cn1 has an IC50 of 0.219 nM.
COC1CCN(c2cccnc2Oc2ccc(Nc3nc4ccccc4s3)cc2)CC1 was tested, and the IC50 was 3.16 nM.
Work on Cc1ccc(CCNC(=O)c2cccnc2Oc2ccc(C(=O)c3nc4ccccc4[nH]3)cc2)cc1 yielded an IC50 of 3.11 nM.
COC[C@H](Cc1ccccc1)NC(=O)c1cccnc1Oc1ccc(C(=O)c2nc3ccccc3[nH]2)cc1 showed an IC50 of 1.64 nM.
c1cncc(-c2cccnc2Oc2ccc(Nc3nc4ccccc4[nH]3)cc2)c1 was tested, and the IC50 was 0.179 nM.
O=C(c1ccc(Oc2ncccc2C(=O)NC2Cc3ccccc3C2)cc1)c1nc2ccccc2[nH]1 showed an IC50 of 56.7 nM.
Work on CC(=O)N1CC=C(c2cccnc2Oc2ccc(Nc3nc4ccccc4s3)cc2)CC1 yielded an IC50 of 0.363 nM.
Work on CC(=O)N1CC=C(c2cccnc2Oc2ccc(C(=O)c3nc4ccccc4[nH]3)cc2)CC1 yielded an IC50 of 0.194 nM.
With C[C@@H](CNC(=O)c1cccnc1Oc1ccc(C(=O)c2nc3ccccc3[nH]2)cc1)c1ccccc1 the IC50 was 2.69 nM.
For O=C1C=C(c2cccnc2Oc2ccc(C(=O)c3nc4ccccc4[nH]3)cc2)CC1, the IC50 was 1.01 nM.
C[C@H](CNC(=O)c1cccnc1Oc1ccc(C(=O)c2nc3ccccc3[nH]2)cc1)c1ccccc1 was tested, and the IC50 was 8.81 nM.
CC(=O)N1CCC(c2cccnc2Oc2ccc([C@H](O)c3nc4ccccc4[nH]3)cc2)CC1 was tested, and the IC50 was 4.2 nM.
OC(c1ccc(Oc2ncccc2C2CCOCC2)cc1)c1nc2ccccc2[nH]1 (configuration not stated) gave an IC50 of 45.7 nM.
With O=C1C=C(c2cccnc2Oc2ccc(Nc3nc4ccccc4s3)cc2)CC1 the IC50 was 2.84 nM.
c1cnc(Oc2ccc(Nc3nc4ccccc4s3)cc2)c([C@H]2CCCO2)c1 gave an IC50 of 54.2 nM.
In the case of O=C(c1ccc(Oc2ncccc2[C@@H]2CCCO2)cc1)c1nc2ccccc2[nH]1, the IC50 is reported as 4.97 nM and 13.3 nM.
O=C(c1ccc(Oc2ncccc2[C@@H]2CCOC2)cc1)c1nc2ccccc2[nH]1 was tested, and the IC50 was 0.92 nM.
In the case of C1=CO[C@H](c2cccnc2Oc2ccc(Nc3nc4ccccc4s3)cc2)CC1, the IC50 is reported as 22.3 nM.
O[C@@H]1CCC[C@H](c2cccnc2Oc2ccc(Nc3nc4ccccc4s3)cc2)C1 showed an IC50 of 2.21 nM.
With C[C@]1(O)CCC[C@H](c2cccnc2Oc2ccc(Nc3nc4ccccc4s3)cc2)C1 the IC50 was 6.87 nM.
With O=C(c1ccc(Oc2ncccc2C2(F)CCOCC2)cc1)c1nc2ccccc2[nH]1 the IC50 was 0.311 nM.
C[C@]1(O)CCC[C@H](c2cccnc2Oc2ccc(C(=O)c3nc4ccccc4[nH]3)cc2)C1 showed an IC50 of 1.14 nM.
CN1C[C@@H](c2cccnc2Oc2ccc(Nc3nc4ccccc4s3)cc2)CC1=O gave an IC50 of 0.195 nM.
FC(F)(c1ccc(Oc2ncccc2C2CCOCC2)cc1)c1nc2ccccc2[nH]1 showed an IC50 of 11.6 nM.
Molecule Cn1c(C(=O)c2ccc(Oc3ncccc3C3CCOCC3)cc2)nc2ccccc21 has an IC50 of 0.509 nM.
For O=C(c1ccc(Oc2ncccc2[C@@H]2CC[C@H](O)C2)cc1)c1nc2ccccc2[nH]1, the IC50 was 0.675 nM.
With C[C@@]1(O)CCC[C@@H](c2cccnc2Oc2ccc(Nc3nc4ccccc4s3)cc2)C1 the IC50 was 3.66 nM.
C[C@H](Cc1ccc(F)cc1)NC(=O)c1cccnc1Oc1ccc(C(=O)c2nc3ccccc3[nH]2)cc1 was tested, and the IC50 was 0.135 nM.
In the case of COc1cncc(-c2cccnc2Oc2ccc(C(=O)c3nc4ccccc4[nH]3)cc2)c1, the IC50 is reported as 0.622 nM.
COc1ccc(-c2cccnc2Oc2ccc(C(=O)c3nc4ccccc4[nH]3)cc2)cn1 showed an IC50 of 1.27 nM.
With C[C@H](Cc1ccccn1)NC(=O)c1cccnc1Oc1ccc(C(=O)c2nc3ccccc3[nH]2)cc1 the IC50 was 6.83 nM.
c1cnc(Oc2ccc(Nc3nc4ccccc4s3)cc2)c([C@H]2CCOC2)c1 was tested, and the IC50 was 0.865 nM.
Molecule O=C(c1ccc(Oc2ncccc2[C@H]2CCC[C@@H](O)C2)cc1)c1nc2ccccc2[nH]1 has an IC50 of 0.99 nM.
In the case of C[C@]1(O)CCCC(c2cccnc2Oc2ccc(C(=O)c3nc4ccccc4[nH]3)cc2)C1 (some centres not stated), the IC50 is reported as 1.22 nM.
C[C@]1(O)CC[C@@H](c2cccnc2Oc2ccc(Nc3nc4ccccc4s3)cc2)CC1 was tested, and the IC50 was 12.6 nM.
In the case of C[C@]1(O)CC[C@@H](c2cccnc2Oc2ccc(C(=O)c3nc4ccccc4[nH]3)cc2)CC1, the IC50 is reported as 1.63 nM.
C[C@]1(O)CC[C@H](c2cccnc2Oc2ccc(C(=O)c3nc4ccccc4[nH]3)cc2)CC1 was tested, and the IC50 was 1.42 nM.
C[C@]1(O)CC[C@H](c2cccnc2Oc2ccc(Nc3nc4ccccc4s3)cc2)CC1 showed an IC50 of 4.51 nM.
c1cnc(Oc2ccc(Nc3nc4ccccc4s3)cc2)c([C@@H]2CCCOC2)c1 showed an IC50 of 2.49 nM.
Molecule Cn1c(C(=O)c2ccc(Oc3ncccc3C3(F)CCOCC3)cc2)nc2ccccc21 has an IC50 of 0.749 nM.
Work on CC(=O)N1CCC[C@@H](c2cccnc2Oc2ccc(Nc3nc4ccccc4s3)cc2)C1 yielded an IC50 of 0.268 nM.
O[C@@H]1CC[C@H](c2cccnc2Oc2ccc(Nc3nc4ccccc4s3)cc2)C1 gave an IC50 of 2.64 nM.
COc1ncccc1-c1cccnc1Oc1ccc(Nc2nc3ccccc3s2)cc1 gave an IC50 of 2.54 nM.
With COc1cccc(-c2cccnc2Oc2ccc(Nc3nc4ccccc4s3)cc2)n1 the IC50 was 164 nM.
O[C@H]1CCC[C@@H](c2cccnc2Oc2ccc(Nc3nc4ccccc4s3)cc2)C1 gave an IC50 of 3.75 nM.
For O[C@H]1CC[C@H](c2cccnc2Oc2ccc(Nc3nc4ccccc4s3)cc2)C1, the IC50 was 1.21 nM.
O[C@H]1CC[C@@H](c2cccnc2Oc2ccc(Nc3nc4ccccc4s3)cc2)C1 was tested, and the IC50 was 2.54 nM.
With O[C@H]1CC[C@H](c2cccnc2Oc2ccc(Nc3nc4ccccc4s3)cc2)CC1 the IC50 was 6.38 nM.
O[C@H]1CC[C@@H](c2cccnc2Oc2ccc(Nc3nc4ccccc4s3)cc2)CC1 showed an IC50 of 1.63 nM.
